For 18 compounds, IC50 and MIC results are on record in ChEMBL document CHEMBL1131262, “Comprehensive study on structure-activity relationships of rifamycins: discussion of molecular and crystal structure and spectroscopic and thermochemical properties of rifamycin O” (J Med Chem, 1998).

Assay [1] deals with Nucleic Acid. Put plainly: Inhibitory concentration against DNA dependent RNA polymerase in E. coli; Non active. Type of assay: nucleic-acid assay, Escherichia coli.
The test system of assay [2] is Escherichia coli. Put plainly: The compound is evaluated for inhibitory concentration against Escherichia coli and is expressed as minimum inhibitory concentration (MIC); Non active. Type of assay: functional, organism-based.
In assay [3] the test system is Escherichia coli. Put plainly: The compound is evaluated for inhibitory concentration against Escherichia coli and is expressed as minimum inhibitory concentration (MIC). The assay is classed as functional.
Assay [4] deals with Escherichia coli. Nature of the assay: The compound is evaluated for inhibitory concentration against Escherichia coli and is expressed as minimum inhibitory concentration (MIC); active. Type of assay: functional, organism-based.
The test system of assay [5] is Nucleic Acid. Put plainly: Inhibitory concentration against DNA dependent RNA polymerase in Escherichia coli. The assay is classed as nucleic-acid assay.
Where [6] appears, read: Escherichia coli, read-out: MIC.

≈ marks a conversion by molar mass, not a printed value. Calls of active or inactive are those of the source. The rule behind the calls is not given here.

As to `COC1/C=C/OC2(C)Oc3c(C)c(O)c4c(c3C2O)C(=O)C=C(NC(=O)/C(C)=C\C=C\C(C)C(OC(C)=O)C(C)C(O)C(C)C(OC(C)=O)C1C)C4=O` (configuration not stated), in the assay with Nucleic Acid [1], the IC50 entry was “Not Active”. In the assay with Escherichia coli [2], the MIC entry was “inactive”.
The like results for `COC1/C=C/OC2(C)Oc3c(C)c(O)c4c(c3C2O)C(=O)C=C(NC(=O)/C(C)=C\C=C\C(C)C2OC(C)(C)OC(C(C)C(O)C1C)C2C)C4=O` (configuration not stated) were, in that order, “Not Active” and “inactive”.
Take `CCN(CC)c1nc2c(s1)c1c(O)c3c(O)c(C)c4c(c32)C(=O)[C@@](C)(O/C=C/[C@H](OC)[C@@H](C)[C@@H](OC(C)=O)[C@H](C)[C@H](O)[C@H](C)[C@@H](O)[C@@H](C)/C=C/C=C(/C)C(=O)N1)O4` [RIFAMEXIL]: the MIC with Escherichia coli [3] (setting [6]) is 32 µg/mL (≈ 39.5 µM).
For `COC1/C=C/OC2(C)Oc3c(C)c(O)c4c(c3C2=O)-c2[n-]c3ccc(Br)c[n+]3c2/C(=N/C(=O)/C(C)=C\C=C\C(C)C(O)C(C)C(O)C(C)C(OC(C)=O)C1C)C4=O` (configuration not stated), the MIC result in the assay on Escherichia coli [4] is “Active”.
In turn, `CO[C@H]1/C=C/O[C@@]2(C)Oc3c(C)c(O)c4c(O)c(cc(O)c4c3C2=O)NC(=O)/C(C)=C\C=C\[C@H](C)[C@H](O)[C@@H](C)[C@@H](O)[C@@H](C)[C@H](OC(C)=O)[C@@H]1C` (stereo in doubt; form 1) [RIFAMYCIN] returned an IC50 with Nucleic Acid [5] of 15 nM/unit. The compound further registered an MIC in the assay on Escherichia coli [3] of 3 µg/mL (≈ 4.3 µM).
As to `CO[C@H]1/C=C/O[C@@]2(C)Oc3c(C)c(O)c4c(O)c(c(/C=N/N5CCN(C)CC5)c(O)c4c3C2=O)NC(=O)/C(C)=C\C=C\[C@H](C)[C@H](O)[C@@H](C)[C@@H](O)[C@@H](C)[C@H](OC(C)=O)[C@@H]1C` [RIFAMPIN], in the assay on Escherichia coli [3] (setting [6]), the MIC came out at 20 µg/mL (≈ 24.3 µM).
Take `COC1=N\C2=CC(=O)c3c(c(O)c(C)c4c3C(=O)C(C)(O/C=C/C(OC)C(C)C(OC(C)=O)C(C)C(O)C(C)C(O)C(C)/C=C/C=C\1C)O4)C2=O` (configuration not stated): the IC50 entry in the assay on Nucleic Acid [1] was “Not Active”.
As for `COC1=N/C2=CC(=O)c3c(c(O)c(C)c4c3C(=O)C(C)(O/C=C/C(OC)C(C)C(OC(C)=O)C(C)C(O)C(C)C(O)C(C)\C=C/C=C\1C)O4)C2=O` (configuration not stated), the MIC entry with Escherichia coli [2] was “inactive”.
As for `COc1c(C)c2c3c4c(O)cc5c(c14)OC(N5)/C(C)=C\C=C\C(C)C(O)C(C)C(O)C(C)C(OC(C)=O)C(C)C(OC)/C=C/OC(C)(O2)C3=O` (configuration not stated), in the assay on Nucleic Acid [1], the IC50 result was “Not Active”. Also, the MIC result in the assay on Escherichia coli [2] is “inactive”.
`COC1/C=C/OC2(C)Oc3c(C)c(O)c4c(c3C2=O)C(=O)C=C(NC(=O)/C(C)=C\C=C\C(C)C(O)C(C)C(O)C(C)C(OC(C)=O)C1C)C4=O` (configuration not stated): the IC50 in the assay on Nucleic Acid [5] is 50 nM/unit. The MIC with Escherichia coli [3] (setting [6]) is 12 µg/mL (≈ 17.2 µM).
As to `COC1/C=C/OC2(C)Oc3c(C)c(O)c4c(O)c(cc(OCC(=O)Nc5ccc(I)cc5)c4c3C2=O)NC(=O)/C(C)=C\C=C\C(C)(O)C(=O)C(C)C(O)C(C)C(OC(C)=O)C1C` (configuration not stated), the IC50 entry in the assay on Nucleic Acid [1] was “Not Active”. In addition, the MIC entry in the assay with Escherichia coli [2] is “inactive”.
Regarding `COC1/C=C/OC2(C)Oc3c(C)c(O)c4c(c3C2=O)C2(C=C(NC(=O)/C(C)=C\C=C\C(C)C(O)C(C)C(O)C(C)C(OC(C)=O)C1C)C4=O)OCC(=O)O2` (configuration not stated), the MIC with Escherichia coli [3] (setting [6]) worked out at 75 µg/mL (≈ 99.5 µM).
`CO[C@H]1/C=C/O[C@@]2(C)Oc3c(C)c(O)c4c(O)c(cc(O)c4c3C2=O)NC(=O)/C(C)=C\C=C\[C@H](C)[C@H](O)[C@@H](C)[C@@H](O)[C@@H](C)[C@H](OC(C)=O)[C@@H]1C` (stereo in doubt; form 2) [RIFAMYCIN]: the IC50 with Nucleic Acid [5] worked out at 85 nM/unit. The same compound yielded an MIC against Escherichia coli [3] of 25 µg/mL (≈ 35.8 µM).
Turning to `COC1/C=C/OC2(C)Oc3c(C)c(O)c4c(c3C2=O)C(=O)C=C(NC(=O)C(C)CCCC(C)C(O)C(C)C(O)C(C)C(OC(C)=O)C1C)C4=O` (configuration not stated), in the assay with Nucleic Acid [5], the IC50 is listed as 1600 nM/unit.
Regarding `COC1/C=C/OC2(C)Oc3c(C)c(O)c4c(c3C2=O)C(=O)C=C(NC(=O)/C(C)=C\C(=O)C2CC2C(O)C(C)C(O)C(C)C(OC(C)=O)C1C)C4=O` (configuration not stated) [TOLYPOMYCINONE], in the assay on Nucleic Acid [1], the IC50 result is recorded as “Not Active”. Also, the MIC entry with Escherichia coli [2] is “inactive”.
The like results for `COC1/C=C/C2OC3(C)C4c5c(c(C)c(O)c6c5C(=O)C=C(NC(=O)/C(C)=C\C=C\C(C)C5OC(C)(C)OC(C(C)C(O)C1C)C5C)C6=O)OC43O2` (configuration not stated) were, in that order, “Not Active” and “inactive”.
`COC1/C=C/OC2(C)Oc3c(C)c(O)c4c(c3C2O)C(=O)C=C(NC(=O)/C(C)=C\C=C\C(C)C(O)C(C)C(O)C(C)C(OC(C)=O)C1C)C4=O` (configuration not stated) had an IC50 in the assay on Nucleic Acid [5] of 50 nM/unit.
Same read-out and setting: in the case of `COC(=O)C1=C2NC(=O)/C(C)=C\C=C\C(C)C(O)C(C)C(O)C(C)C(OC(C)=O)C(C)C(OC)/C=C/OC3(C)Oc4c(C)c(O)c(c(c4C3=O)C1=O)C2=O` (configuration not stated) it was 20 nM/unit.

As a reminder, the MIC is the lowest concentration that inhibits growth of the organism.
